From US9340768B2, “Transformation of glycerol and cellulosic materials into high energy fuels” (THE TEXAS A&M UNIVERSITY SYSTEM, priority 2008, dated 2016)
Entries after “also recorded” stand apart in the source; their conditions may differ.

Key:
Format in all cases: cell-based, Debaryomyces hansenii
D. hansenii [1] = experiment: OmniLog Phenotype Microarray, osmolytes (PM9); conditions: 30° C., OMNILOG PM
Description: PM assays. Inoculums for PM panels were prepared according to the manufacturer's protocols with modifications; Procedures for S. cerevisiae and other Fungi version 8 Feb. 2006 (Biolog) was used to prepare inoculums for PM01, PM02, and PM09, while version 29 Apr. 2008 (Biolog) was used for PM10. In brief, D. hansenii were streaked onto defined Medium A (Table 6) and cultivated at 30° C. for 48 hours. Cells were redistributed onto fresh agar using a sterile swab and incubated for an additional 4 hours at 30° C. to ensure active growth and avoid late-growth clumping (Oliver R Homann, Houjian Cai, 2005). (Kimura et al., 2004)
Cells were then transferred into the appropriate PM inoculation fluid (Table 7) and re-suspended to 62% transmittance (approximately 200 cells per 100 μL assay). PM1 and PM2 measure carbon source utilization and/or sensitivity; as such, the inoculation fluid lacks a defined carbon source (e.g., glycerol or glucose). In contrast, the inoculating fluids for PM9 (osmolytes) and PM10 (pH) required the inclusion of a carbon source (Table 7); in this case glucose was supplemented to 100 mM.
D. hansenii-containing inoculation fluid was inoculated into PM panels and incubated at 30° C. for 6.5 days. Color intensity for each well was measured every 15 minutes. Exemplary time course (kinetic) results (means) from representative PM assays are plotted.
In order to simplify the comparison of individual assay conditions, the full time-course kinetic plots were converted into a single unitless numerical value, which is weighted to more greatly value latter time points (e.g., endpoints), as described by Homann et al. (2005). Signal value=[(average signal+maximum signal)/2−average signal over first 2 h]; Represent the full time course by a single number; Weight the value towards latter time points; Subtract the “baseline” signal level for each well (Oliver R Homann, 2005) and Replicate PM assay runs were conducted, and the average of the signal values was used.

D. hansenii [2] = experiment: Cell viability by FUN1 stain and microscopic quantification; conditions: 100 nM wortmannin, FUN1 stain
Description: (§1) Fluorescent microscopy. For Nile red stained cells or cultures, microscopic photographs were taken with an Olympus BX51 microscope (Olympus America, New York, USA) equipped with an Olympus DP70 camera using a 530-550 nm excitation filter, a 570 nm diachronic mirror and a 590 nm emission filter with a 60× objective lens. For microscopic quantification of secreted lipid bodies, 50 μL of the cell suspension in media A containing 0.2% agarose and Nile red, with or without the addition of 100 nM wortmannin, were inoculated in triplicate in microscopic frames that allow the agarose-based matrix to be sealed between two pieces of cover glasses. Slides were incubated in 90% moisture at 30° C. At 0, 48, 72, 96, 120, 144 hr post inoculation, the number of the cells and extracellular lipid bodies (stained with Nile red) were quantified. In parallel, the cells were stained with FUN1 (Invitrogen) for viability determination.

D. hansenii [3] = experiment: Microscopic quantification of secreted (extracellular) lipid bodies, Nile red; conditions: 100 nM wortmannin, 144 hr post inoculation; untreated control more than 80 per 100 cells
Description: as §1

D. hansenii [4] = experiment: Growth and oleagenicity of D. hansenii on pure carbon sources (Nile red plate staining); conditions: for Growth: carbon source at 30 g/L in minimal media; for Oleagenicity: carbon source at 30 g/L, Nile Red fluorescence
Description: D. hansenii (Dh) and S. cerevisiae (Sc) grown on minimal media containing no carbon source, 30 g/L of glucose, arabinose, xylose, carboxymethylcellulose or cellobiose. D. hansenii grew well on media containing glucose, arabinose and cellobiose. Lipid accumulation was indicated by Nile Red fluorescence in D. hansenii grown on glucose but not on cellobiose.
Culture media and cultivation conditions. For liquid culture, single colony of D. hansenii or S. cerevisiae were pre-cultured in 2 mL YPD or other desired media (see below) and incubated at 30° C. for 24 hr. Cells were counted using a hemacytometer and spun down at 3000 rpm for 15 minutes. Cells at a concentration of 1×10^6/mL were used to inoculate the desired media with 1% of the total volume. Medium A with limited nitrogen source (glucose 30 g/L, yeast extract 1.5 g/L, NH4Cl 0.1 g/L, KH2PO4 7.0 g/L, Na2HPO4 1.983 g/L, MgSO4.7H2O 1.5 g/L, FeCl3.6H2O 0.08 g/L, ZnSO4.7H2O 0.01 g/L, CaCl2.2H2O 0.1 g/L, MnSO4.H2O 0.07 mg/L, CuSO4.5H2O 0.1 mg/L, Co(NO3)2.6H2O 0.1 mg/L, pH 5.5; see Kimura et al., 2004) was used to support the growth of D. hansenii and induce cellular lipid accumulation. Medium A with sufficient nitrogen supply (NH4Cl 5 g/L) was used to support growth without the induction of lipid accumulation. To test the growth of D. hansenii on carbon sources other than glucose, glucose was dropped out from medium A and replaced with desired carbon sources at the same concentration except for glycerol, which was at 10% or 20% (v/v). […] For making media containing sorghum juice, raw juice was filter sterilized and added in the media at various concentrations of 5%, 10%, 25%, and 50% (v/v). Crude glycerol (Future Fuel Chemical Company, Arkansas, USA) contained 6% water, 88% glycerol, 2.564% ash by weight.
Nile red plate staining assay. Nile red (9-diethylamino-5H-benzo[α]phenoxazine-5-one) obtained from Sigma-Aldrich (Missouri, USA) was dissolved in Dimethyl sulfoxide (DMSO) at a concentration of 0.5 mg/mL and supplemented in medium A at a final concentration of 0.5 μg/mL. For direct observation of cellular lipid accumulation, D. hansenii grown on solid medium A with Nile red were observed using a UV light source (312 nm) as described (Spiekemann et al., 1999).

`[Cl-].[K+]` [KCl] was tested. Which “level of salt solution tolerated without severe compromise in growth” value (D. hansenii [1]) did it give?
The value was at most 6%.

For `COC[C@H]1OC(=O)c2coc3c2[C@@]1(C)C1=C(C3=O)[C@@H]2CCC(=O)[C@@]2(C)C[C@H]1OC(C)=O` [wortmannin], which cell viability (D. hansenii [2]) is on record?
Its cell viability is “remained unaffected; also recorded: not affected”.

What about the “lipid bodies released from D. hansenii cells” value (D. hansenii [3]) of the same compound?
Its value is “lower than 10 per 100 cells”.

With `O=S(=O)([O-])[O-].[Na+].[Na+]` [Na2SO4] as the compound, how does the “level of salt solution tolerated without severe compromise in growth” value (D. hansenii [1]) read?
The value was at most 5%.

For `O=C[C@@H](O)[C@H](O)[C@H](O)CO` [Arabinose], which Growth (D. hansenii [4]) is on record?
Its Growth is “grew well”.

And the Oleagenicity (D. hansenii [4])?
The Oleagenicity was “No”.

With `[Cl-].[Na+]` [NaCl] as the compound, how does the “level of salt solution tolerated without severe compromise in growth” value (D. hansenii [1]) read?
Its value is “up to 6.5%”.

For `O=C[C@H](O)[C@@H](O)[C@H](O)CO` [Xylose], which Oleagenicity (D. hansenii [4]) is on record?
Its Oleagenicity is “No”.

For `O=C[C@H](O)[C@@H](O)[C@H](O[C@@H]1O[C@H](CO)[C@@H](O)[C@H](O)[C@H]1O)[C@H](O)CO` [Cellobiose], which Growth (D. hansenii [4]) is on record?
Its Growth is “grew well”.

What about the Oleagenicity (D. hansenii [4]) of the same compound?
Its Oleagenicity is “No”.
